Experiments:
cytochrome P450 OleP [1] = molecular target: T1, cytochrome P450 OleP (Streptomyces antibioticus, UniProt Q59819); assay: UV-visible equilibrium titration (Type I Soret shift); crystal structure of the ternary complex with L-rhamnose ([…] Å); format: binding
T1 construct: wild type enzyme
T1 sequence (Q59819 1-407): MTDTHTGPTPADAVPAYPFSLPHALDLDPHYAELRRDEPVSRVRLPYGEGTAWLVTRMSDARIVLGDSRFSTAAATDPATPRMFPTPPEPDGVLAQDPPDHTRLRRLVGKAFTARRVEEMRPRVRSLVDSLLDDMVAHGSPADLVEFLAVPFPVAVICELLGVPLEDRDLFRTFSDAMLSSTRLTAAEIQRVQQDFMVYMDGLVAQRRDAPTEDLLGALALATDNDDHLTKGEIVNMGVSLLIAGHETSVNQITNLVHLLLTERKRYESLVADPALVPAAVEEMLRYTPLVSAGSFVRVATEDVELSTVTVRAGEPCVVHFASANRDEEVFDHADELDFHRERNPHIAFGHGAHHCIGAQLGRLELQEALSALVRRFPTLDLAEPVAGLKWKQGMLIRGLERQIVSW

cytochrome P450 OleP [2] = molecular target: T1, cytochrome P450 OleP; assay: UV-visible equilibrium titration (Type I Soret shift); crystal structures 6ZHZ, 6ZI2 and 6ZI7; format: binding

Kd (cytochrome P450 OleP [1]) [µM]	Kd (cytochrome P450 OleP [2]) [µM]	Structure (SMILES)
3.2 ± 0.1		CC[C@H]1OC(=O)[C@H](C)[C@@H](O)[C@H](C)[C@@H](O)[C@@H](C)C[C@@H](C)C(=O)[C@H](C)[C@@H](O)[C@H]1C [6DEB, 6-deoxyerythronolide B]
	23 ± 2	C[C@@H]1[C@@H](O)[C@@H](C)C[C@H](C)C(=O)[C@H](C)[C@@H](O)[C@@H](C)[C@@H](C)OC(=O)[C@H](C)[C@H]1O [DEO, 8.8a-deoxyoleandolide]

From PMC7600006, “Dissecting the Cytochrome P450 OleP Substrate Specificity: Evidence for a Preferential Substrate” (Biomolecules, 2020)
